Our source for the IC50 values is PubChem BioAssay AID504322 (Emory University Molecular Libraries Screening Center, 2011).

As usually defined, the pIC50 is −log10 of the IC50, conventionally taken in molar units. Broadly, the IC50 is the concentration at which inhibition is half-maximal.

pIC50: −log10 of the molar value. Activity calls are given as the source filed them. No rule for the calls is given here.

The subject of the experiment is CHOP reporter cell assay, percent of control. The experiment can be described thus: CHOP reporter inhibitor potency, dose response, cell-based (AID 504322).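 Also: CHO cells carrying a CHOP reporter stimulated with tunicamycin to induce ER stress; potency is for inhibition of the stress-induced reporter signal.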
With `CCOC(=O)c1cnc(-n2nc(C)cc2C)nc1Nc1ccc(O)cc1`, the pIC50 is 5.82.
In the case of `FC(F)(F)c1cccc(NC(=S)N2CCN(c3cccc(C(F)(F)F)c3)CC2)c1`, the IC50 is 9.67 µM (inactive).
As for `Cc1nc(SCC(=O)Nc2ccc(F)cc2)c(C#N)c(C)c1CC(=O)c1ccc(Br)cc1`, the IC50 is > 10 µM (inactive).
With `CN(C)CCCn1c(SCC(=O)Nc2nc(-c3cccc(Br)c3)cs2)nc2ccccc2c1=O`, the IC50 is 9.51 µM (inactive).
Consider `O=C(O)CSCC(=O)Nc1ccc(C2CCCCC2)cc1`, for which the pIC50 was 6.27.
`O=C(CCl)Nc1ccc(Sc2ccc(NC(=O)CCl)cc2)cc1`: the negative-log IC50 (pIC50) was 5.30.
Still for that read-out and setting: with `Cn1ncc2c(O/N=C(\N)c3ccc(C(C)(C)C)cc3)ncnc21` the figure was 5.37.
With `O=C(Nc1ccccc1NC(=O)NC1CCCCC1)NC1CCCCC1`, the IC50 was 8.46 µM (inactive).
As to `COc1ccc(N=CC2=C(O)c3ccccc3C2=O)c(OC)c1`, the IC50 was 6.53 µM (inactive).
Same read-out and setting: with `CCOC(=O)/C(=C\c1ccc(OC(F)F)cc1)C1=Nn2c(nnc2-c2ccc(Cl)cc2)SC1` the figure was 3.2 µM (inactive).
Regarding `COc1ccc(OCc2cccc(C(=O)O)c2)cc1`, the negative-log IC50 (pIC50) was 6.06.
As for `Cc1cc(/C=c2/sc3nc4ccccc4n3c2=O)c(C)n1-c1ccccn1`, the negative-log IC50 (pIC50) was over 6.80.
Regarding `O=C(CCl)N(c1ccc(Cl)cc1)c1c[nH]c2ccccc12`, the IC50 is 9.58 µM (inactive).
On to `Cc1ccc(Nc2nc(N)nc(CN3CCN(c4ccccc4)CC3)n2)cc1Cl`, for which the negative-log IC50 (pIC50) is 5.07.
Regarding `O=C(N/N=C/c1cccs1)c1cccc(NC(=O)c2ccc(Cl)cc2)c1`, the pIC50 was 5.38.
Regarding `CC1CCN(S(=O)(=O)c2ccc3c(c2)C(=NO)c2cc(S(=O)(=O)N4CCC(C)CC4)ccc2-3)CC1`, the pIC50 is 6.49.
In the case of `CCC(=O)N1N=C(c2c(-c3ccccc3)c3cc(Cl)ccc3[nH]c2=O)CC1c1ccco1` (stereo not drawn), the IC50 is 8.96 µM (inactive).
In the case of `C=CCn1c(COc2ccccc2)nnc1SC(C)C(=O)N/N=C/c1cc(Cl)ccc1O` (stereo not drawn), the IC50 was 9.66 µM (inactive).
For the compound `CC(C)=CCc1c(O)c(CC=C(C)C)c2c(c1O)C(=O)CC(c1ccc(O)cc1)O2` (stereo not drawn), the IC50 is 9.61 µM (inactive).
On the same count and under the same terms, the result for `CCCC(NCC(O)COc1ccc(-c2ccccc2)cc1)c1ccccc1` (stereo not drawn) reads 9.3 µM (inactive); that for `Cc1ccc(C2(c3ccc(C)cc3)CC2C(=O)Nc2ccc([N+](=O)[O-])cc2O)cc1` (stereo not drawn), 8.64 µM (inactive); that for `Cc1ccc(CNCC(O)(c2ccccc2)c2ccc(Cl)cc2)cc1` (stereo not drawn), 9.63 µM (inactive).
Same read-out and setting: with `CCCCCCn1c(-c2ccco2)nc2oc3cc(OC)ccc3c(=O)c2c1=O` the figure was 9.42 µM (inactive); with `CCN(CCO)c1ncnc2c1sc1nc(C(C)C)c3c(c12)CC(C)(C)OC3`, 9.63 µM (inactive).
`Cc1nc(Nc2ccc(F)cc2)[nH]c(=O)c1CCC(C)C`: the pIC50 is 5.61.
For `Cc1nn(CCC#N)c2nc(-c3ccccc3)cc(C(F)(F)F)c12`, the IC50 was 4 µM (inactive).
As for `O=c1cc(-c2c(F)c(F)c(F)c(F)c2F)oc2c(F)c(F)c(F)c(F)c12`, the pIC50 was 5.40.
On to `CCC(NC(=O)Nc1nnc(C(F)(F)F)s1)(C(F)(F)F)C(F)(F)F`, for which the IC50 was 2.56 µM (inactive).
The same measure, in the same setting: with `CCOC(=O)c1cc(-c2cccs2)nc2c1c(C)nn2-c1ccccn1` the figure was 9.14 µM (inactive); with `O=Cc1s/c(=N\S(=O)(=O)c2ccccc2)n(CCCCl)c1Cl`, 5.89 µM (inactive).
Consider `C[C@H]1C[C@@H](C)C(=O)[C@@H]([C@H](O)CC2CC(=O)NC(=O)C2)C1`, for which the IC50 is < 0.16 µM (inactive).
Same read-out and setting: with `O=S(=O)(NCC(Nc1ccc(Cl)cc1)c1ccccc1)c1ccc(Cl)cc1` (stereo not drawn) the figure was 6.69 µM (inactive); with `Cc1ccc(Nc2nc(N)c([N+](=O)[O-])c(N3CCC(C)CC3)n2)cc1C`, 5.69 µM (inactive).
Regarding `CC[C@@H]1CC=C[C@H]2[C@H]1C(=O)N(Cc1ccccc1)[C@H]2c1ccoc1`, the IC50 is 9.62 µM (inactive).
As for `Cc1ccc2[nH]c(O)c(N=NC(=O)CCc3ccccc3)c2c1Br`, the pIC50 was 5.37.
Regarding `O=S(=O)(Nc1cc(Sc2cccc3cccnc23)c(O)c2ccccc12)c1ccc(F)cc1`, the pIC50 is 5.57.
In the case of `Cc1ccccc1CS(=O)(=O)c1nnc([C@H](Cc2ccccc2)NC(=O)OC(C)(C)C)o1`, the pIC50 is 5.40.
`O=C(O)c1cccc(COc2ccccc2Cl)c1`: the IC50 was 6.05 µM (inactive).
On to `Cc1csc(NC(=O)CSc2nnc3c4ccccc4nc(C(C)(C)C)n23)n1`, for which the IC50 is 9.55 µM (inactive).
On to `Cc1cccc(NC(=O)CSc2nc(C)c(CC(=O)c3ccc(Br)cc3)c(C)c2C#N)c1C`, for which the IC50 is 5.95 µM (inactive).
Turning to `CC1=C/C(=N\OS(=O)(=O)c2ccccc2)C(C)=CC1=O`, the pIC50 is 6.05.
Turning to `CCOc1cc(/C=C2/C(=O)ON=C2C)ccc1OCc1ccc(F)cc1`, the IC50 is 9.5 µM (inactive).
For `CC(C)CCSc1nc2c(c(=O)[nH]c(=O)n2C)n1CCCc1ccccc1`, the negative-log IC50 (pIC50) was 5.28.
For the compound `Cc1cccc(NC(=O)/C(C#N)=C/c2cn(CC(=O)NCc3ccco3)c3ccccc23)c1C`, the IC50 is > 10 µM (inactive).
Regarding `CC(C)(C)c1ccc(C(=O)NNC(=O)c2cccc(Br)c2)cc1`, the IC50 was > 10 µM (inactive).
Still for that read-out and setting: the result for `CCCOC(=O)c1ccc(Oc2cn[nH]c2-c2ccc(OC)cc2O)cc1` reads 9.32 µM (inactive).
In the case of `CCSc1nc(-c2ccccc2)nc(C(Cl)Cl)n1`, the IC50 is 6.32 µM (inactive).
On the same count and under the same terms, the result for `Cc1ccc(C(C(=O)NCc2ccco2)N(C(=O)CNC(=O)c2cccs2)c2c(C)cccc2C)cc1` (stereo not drawn) reads > 10 µM (inactive).
Regarding `CC(C)Cc1ccc(C(C)C(=O)Nc2nccs2)cc1` (stereo not drawn), the IC50 is > 10 µM (inactive).
The same measure, in the same setting: the result for `Cn1c(-c2cccc(OCc3ccccc3)c2)nc2c1c(=O)[nH]c(=O)n2Cc1ccccc1` reads > 10 µM (inactive).
Regarding `COC(=O)[C@@H]1[C@@H](C(=O)OC)C2(c3ccccc3-c3ccccc32)N(c2ccc(Cl)cc2)N1C#N`, the pIC50 was 5.34.
For the compound `O=C(Nc1ccc(-c2nc3ccccc3s2)cc1)C1=COCCO1`, the IC50 was 7.48 µM (inactive).
For the compound `CCCCCCCC(=O)N/N=C/c1ccc(Br)cc1`, the negative logarithm of the IC50 (pIC50) is 5.45.
On to `OC(CNCC1CCCO1)Cn1c2ccc(Br)cc2c2cc(Br)ccc21` (stereo not drawn), for which the IC50 was 8.2 µM (inactive).
Turning to `Nc1ccc2oc(-c3cc(Br)ccc3Cl)nc2c1`, the negative logarithm of the IC50 (pIC50) is 6.15.
Consider `O=Nc1ccc(O)c2ncccc12`, for which the IC50 is 8.83 µM (inactive).
Still for that read-out and setting: the result for `O=C(O)c1ccc(N/N=C/c2ccc3nccnc3c2)cc1` reads 6.06 µM (inactive).
Still for that read-out and setting: the result for `CC1(C)CC(C(CCN(Cc2ccccc2)C(=O)c2ccco2)c2ccc(F)cc2)CCO1` (stereo not drawn) reads 9.7 µM (inactive).
Regarding `Cn1cnc([N+](=O)[O-])c1S(=O)(=O)c1cccc(Cl)c1`, the IC50 is 8.11 µM (inactive).
On to `CN1CCN(c2ccc(-c3ccc4ccccc4n3)cc2)CC1`, for which the IC50 was < 0.16 µM (inactive).
As to `CC1CCN(C(=O)/C(=C/c2ccccc2Cl)c2ccccc2)CC1`, the IC50 was 3.83 µM (inactive).
Still for that read-out and setting: with `Cc1cc(C2(c3ccc(O)c(C)c3)C(=O)Nc3ccccc32)ccc1O` the figure was > 10 µM (inactive).
For `CCN1/C(=C/C(C)=C/c2sc3ccccc3[n+]2CC)Sc2ccccc21`, the negative logarithm of the IC50 (pIC50) was over 6.80.
The same measure, in the same setting: with `O=C(Nc1ccc([N+](=O)[O-])cc1)Nc1nc(-c2ccc(Cl)s2)cs1` the figure was 5.64.
Consider `Cc1cc2c3c(c1)C(C)(c1ccccc1)CC(C)(C)N3C(=O)C21C(C#N)=C(N)OC2=C1C(=O)CC(C)(C)C2` (stereo not drawn), for which the IC50 was > 10 µM (inactive).
Take `CCc1ccc(-c2nc(CSCC(=O)NCc3ccco3)c(C)o2)cc1`: the pIC50 is over 6.80.
For the compound `COc1ccc(NC(=O)c2cc3cccc(OC)c3oc2=Nc2ccc(C(=O)O)cc2)cc1OC`, the IC50 was 5.28 µM (inactive).
Consider `O=C1C=CC(=O)N1CCCCCCN1C(=O)C=CC1=O`, for which the negative-log IC50 (pIC50) is 5.31.
Take `CC(C)(C)C(=O)NC(=S)NNC(=O)C(c1ccccc1)c1ccccc1`: the IC50 is 9.04 µM (inactive).
Consider `O=C(OCn1ncc(Cl)c(Cl)c1=O)c1cccc(C(F)(F)F)c1`, for which the pIC50 is 5.35.
For the compound `O=C(CNc1cccc(C(F)(F)F)c1)N/N=C/c1cccc(Br)c1`, the IC50 was > 10 µM (inactive).
As to `CCCOc1ccc(N2C(=O)CC(SC(=NCC)Nc3cccc(F)c3)C2=O)cc1` (stereo not drawn), the IC50 was 8.9 µM (inactive).
Same read-out and setting: the result for `COc1ccc(Cn2c(C)c(C)c(C#N)c2NC(=O)Nc2ccc(Cl)cc2)cc1` reads 7.29 µM (inactive); that for `CCCCc1ccc(Nc2nc(CCC)cc(=O)[nH]2)cc1`, 1.97 µM (inactive); that for `CCOc1ccc(-c2cc(CCCC(=O)NCc3ccc(C)cc3)no2)cc1`, 5.91 µM (inactive).
Take `COc1cc(/C=C2\COC/C(=C\c3cc(OC)c(OC)c(OC)c3)C2=O)cc(OC)c1OC`: the negative-log IC50 (pIC50) was 5.46.
Turning to `CCc1ccc(OCC(=O)NC(NC(=S)Nc2ccc(C)cc2C)C(Cl)(Cl)Cl)cc1` (stereo not drawn), the IC50 is 8.46 µM (inactive).
Regarding `C[C@H](NC(=O)c1[nH]cnc1C(=O)Nc1ccc(Cl)cc1)C(=O)OC(C)(C)C`, the IC50 was 5.47 µM (inactive).
With `Cc1ccc(NP(=O)(Oc2ccccc2F)Oc2ccccc2F)cc1`, the IC50 was 5.26 µM (inactive).
Still for that read-out and setting: with `CCc1ccc(C(=O)/C=C/c2ccc([N+](=O)[O-])o2)cc1` the figure was 9.75 µM (inactive); with `O=C(Nc1ccccc1C(F)(F)F)c1cc(-c2ccc(O)cc2)on1`, 9.47 µM (inactive).
On the same count and under the same terms, the result for `C/C(=N\OCc1cccc(C(=O)O)c1)c1ccc(Cl)cc1` reads 6 µM (inactive); that for `COc1ccc(-c2nc(-c3ccc(NC(=O)c4ccc(Br)o4)cc3)no2)cc1OC`, > 10 µM (inactive).
For `Fc1cccc(-c2nnn3c2nc(Cl)c2ccccc23)c1`, the IC50 is 7.37 µM (inactive).
Turning to `O=C(Nc1ccc(-c2nc3ccccc3o2)cc1)c1ccc(N2CCOCC2)c([N+](=O)[O-])c1`, the pIC50 is 5.45.
Take `O=C(COC(=O)Cc1c(Cl)cccc1Cl)Nc1ccc(OC(F)(F)F)cc1`: the IC50 is > 10 µM (inactive).
As for `OCCCNc1cc(-c2ccnc(Nc3cccc(Cl)c3)n2)ccn1`, the negative-log IC50 (pIC50) was over 6.80.
With `Cc1cccc(OCc2nnc(SCc3nc4cc(C(F)(F)F)ccc4c(=O)[nH]3)o2)c1`, the IC50 was 8.17 µM (inactive).
